Results as given in patent US20120088746A1, “AMIDE DERIVATIVES AS ION-CHANNEL LIGANDS AND PHARMACEUTICAL COMPOSITIONS AND METHODS OF USING THE SAME” (PFIZER INC., priority 2006, published 2012).

target: human VR1 (Homo sapiens, UniProt Q8NER1); assay: Acid stimulation assay (acid-induced intracellular calcium change, FDSS 6000); type: cell-based; details: final assay buffer pH5.8, 15 min pre-incubation, read-out: IC50 (nM) Low pH
Excerpt: VR1 antagonistic activity can be determined by the Ca^2+ imaging assay using human VR1 highly expressing cells. The cells that highly express human VR1 receptors are obtainable from several different conventional methods. The one standard method is cloning from human Dorsal Root Ganglion (DRG) or kidney according to the methods such as described in the journal article; Nature, 389, pp 816-824, 1997. Alternatively VR1 receptors highly expressing human keratinocytes are also known and published in the journal article (Biochemical and Biophysical Research Communications, 291, pp 124-129, 2002). […] Furthermore, the method to up regulate human VR1 gene, which is usually a silent gene or don't produce detectable level of VR1 receptors, is also available to obtain propriety cells. Such genetic modification method was described in detail; Nat. Biotechnol., 19, pp 440-445, 2001.
The cells that express human VR1 receptors were maintained in culture flask at 37° C. in an environment containing 5% CO2 until use in the assay. The intracellular Ca^2+ imaging assay to determine VR1 antagonistic activities were done by following procedures.
The culture medium was removed from the flask and fura-2/AM fluorescent calcium indicator was added to the flask at a concentration of 5 μM in the medium. The flask was placed in CO2 incubator and incubated for 1 hour. Then the cells expressing the human VR1 receptors were detached from the flask follow by washing with phosphate buffer saline, PBS(−) and re-suspended in assay buffer. The 80 tit of aliquot of cell suspension (3.75×10^5 cells/ml) was added to the assay plate and the cells were spun down by centrifuge (950 rpm, 20° C., 3 minutes).
(§1) The Acid-induced changes in the intracellular calcium concentration were monitored using FDSS 6000 (Hamamatsu Photonics, Japan), a fluorometric imaging system. The cell suspension in resting buffer (HBSS supplemented with 10 mM HEPES, pH 7.4) were pre-incubated with varying concentrations of the test compounds or resting buffer (buffer control) for 15 minutes at room temperature under the dark condition. The cells were automatically added the stimulating solution (HBSS supplemented with MES, final assay buffer pH5.8) by the FDSS 6000.
as §1, with “7.4) was” for “7.4) were”, “under” for “under the”, “dark conditions.” for “dark condition.”, “added to” for “added”

human VR1, sequence (Q8NER1 whole entry): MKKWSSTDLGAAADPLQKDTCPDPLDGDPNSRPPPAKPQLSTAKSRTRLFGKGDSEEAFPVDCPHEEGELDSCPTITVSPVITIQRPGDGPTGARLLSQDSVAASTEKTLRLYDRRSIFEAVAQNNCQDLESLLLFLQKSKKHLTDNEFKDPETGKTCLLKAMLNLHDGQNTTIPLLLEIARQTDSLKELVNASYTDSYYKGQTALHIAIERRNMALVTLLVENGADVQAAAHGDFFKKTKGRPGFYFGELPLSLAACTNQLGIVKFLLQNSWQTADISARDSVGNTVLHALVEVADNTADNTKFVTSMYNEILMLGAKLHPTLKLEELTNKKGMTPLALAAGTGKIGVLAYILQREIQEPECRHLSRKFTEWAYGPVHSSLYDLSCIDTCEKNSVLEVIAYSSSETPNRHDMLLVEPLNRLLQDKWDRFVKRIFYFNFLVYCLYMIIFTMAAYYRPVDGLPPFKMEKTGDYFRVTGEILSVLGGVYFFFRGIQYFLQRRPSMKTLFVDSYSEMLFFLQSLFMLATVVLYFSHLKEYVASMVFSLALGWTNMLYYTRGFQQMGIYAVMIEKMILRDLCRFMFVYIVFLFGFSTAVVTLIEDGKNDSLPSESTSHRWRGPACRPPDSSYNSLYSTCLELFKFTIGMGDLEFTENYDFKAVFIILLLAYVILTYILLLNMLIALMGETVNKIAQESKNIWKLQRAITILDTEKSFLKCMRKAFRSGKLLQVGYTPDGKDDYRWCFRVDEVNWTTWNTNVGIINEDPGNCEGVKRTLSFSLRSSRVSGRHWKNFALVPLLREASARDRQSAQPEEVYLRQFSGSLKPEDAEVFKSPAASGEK

SMILES	IC50
Cc1cc([C@@H](C)NC(=O)c2cnc3cc(C(F)(F)F)ccc3c2C)ccc1NS(C)(=O)=O [Example 11, 4-METHYL-N-((1R)-1-{3-METHYL-4-[(METHYLSULFONYL)AMINO]PHENYL}ETHYL)-7-(TRIFLUOROMETHYL)QUINOLINE-3-CARBOXAMIDE]	240 nM
Cc1cc([C@@H](C)NC(=O)c2cnc3cc(C(F)(F)F)ccc3c2)ccc1NS(C)(=O)=O [Example 4, (1R)-1-{3-METHYL-4-[(METHYLSULFONYL)AMINO]PHENYL}ETHYL)-7-(TRIFLUOROMETHYL)QUINOLINE-3-CARBOXAMIDE]	100 nM
Cc1cc([C@@H](C)NC(=O)c2ccc3nc(N4CCC(C)(C)CC4)ccc3c2)c(F)cc1NS(C)(=O)=O [Example 113]	149 nM
Cc1cc([C@@H](C)NC(=O)c2ccc3nc(C(F)(F)F)cc(N4CCC[C@@H]4CO)c3c2)c(F)cc1NS(C)(=O)=O [Example 93, 4-((R)-2-HYDROXYMETHYLPYRROLIDIN-1-YL)-2-TRIFLUOROMETHYLQUINOLINE-6-CARBOXYLIC ACID [(R)-1-(2-FLUORO-4-METHANESULFONYLAMINO-5-METHYLPHENYL)ETHYL]AMIDE]	370 nM
Cc1cc([C@@H](C)NC(=O)c2ccc3nc(C(F)(F)F)cc(N4CC[C@@H](O)C4)c3c2)c(F)cc1NS(C)(=O)=O [Example 90, 4-((R)-3-HYDROXYPYRROLIDIN-1-YL)-2-TRIFLUOROMETHYLQUINOLINE-6-CARBOXYLIC ACID [(R)-1-(2-FLUORO-4-METHANESULFONYLAMINO-5-METHYLPHENYL)ETHYL]AMIDE]	112 nM
COC1CCN(c2ccc3cc(C(=O)N[C@H](C)c4cc(C)c(NS(C)(=O)=O)cc4F)ccc3n2)CC1 [Example 107]	337 nM

These reach a lower IC50. Values come first.

IC50	SMILES
63 nM	Cc1cc([C@@H](C)NC(=O)c2ccc3ccccc3c2)ccc1NS(C)(=O)=O [Example 19, NAPHTHALENE-2-CARBOXYLIC ACID [(R)-1-(4-METHANESULFONYLAMINO-3-METHYLPHENYL)ETHYL]AMIDE]
51 nM	Cc1cc([C@@H](C)NC(=O)c2ccc3nc(C(F)(F)F)nc(N4CCCCC4)c3c2)c(F)cc1NS(C)(=O)=O [Example 84, 4-PIPERIDIN-1-YL-2-TRIFLUOROMETHYL-QUINAZOLINE-6-CARBOXYLIC ACID [(R)-1-(2-FLUORO-4-METHANESULFONYLAMINO-5-METHYL-PHENYL)-ETHYL]-AMIDE]
47 nM	CC(C)c1ccc2cc(C(=O)N[C@H](C)c3cc(F)c(NS(C)(=O)=O)c(F)c3)ccc2n1 [Example 31, N-((1R)-1-{3,5-DIFLUORO-4-[(METHYLSULFONYL)AMINO]PHENYL}ETHYL)-2-ISOPROPYL-QUINOLINE-6-CARBOXAMIDE]
41 nM	Cc1cc([C@@H](C)NC(=O)c2ccc3nc(C(F)(F)F)cc(NC4CCCCC4)c3c2)c(F)cc1NS(C)(=O)=O [Example 97, 4-CYCLOHEXYLAMINO-2-TRIFLUOROMETHYLQUINOLINE-6-CARBOXYLIC ACID [(R)-1-(2-FLUORO-4-METHANESULFONYLAMINO-5-METHYLPHENYL)ETHYL]AMIDE]
30 nM	Cc1cc([C@@H](C)NC(=O)c2cnc3cc(C(F)(F)F)ccc3c2)c(F)cc1NS(C)(=O)=O [Example 43, N-((1R)-1-{2-FLUORO-5-METHYL-4-[(METHYLSULFONYL)AMINO]PHENYL}ETHYL)-7-(TRIFLUOROMETHYL)QUINOLINE-3-CARBOXAMIDE]
7 nM	Cc1cc([C@@H](C)NC(=O)c2ccc3cc(C4(C)CC4)ccc3c2)ncc1NS(C)(=O)=O [Example 58, (R)—N-(1-(4-METHYL-5-(METHYLSULFONAMIDO)PYRIDIN-2-YL)ETHYL)-6-(1-METHYL-CYCLOPROPYL)-2-NAPHTHAMIDE]
6 nM	Cc1cc([C@@H](C)NC(=O)c2ccc3nc(C(F)(F)F)nc(N4CCC(Cc5ccccc5)CC4)c3c2)c(F)cc1NS(C)(=O)=O [Example 106, 4-(4-BENZYL-PIPERIDIN-1-YL)-2-TRIFLUOROMETHYL-QUINAZOLINE-6-CARBOXYLIC ACID [(R)-1-(2-FLUORO-4-METHANESULFONYLAMINO-5-METHYL-PHENYL)-ETHYL]-AMIDE]
